From patent US6498247B2, “Alkali or alkaline earth metal of n-butyric acid for treatment of cognitive and emotional conditions” (Pro-Health, Inc., priority 2000, dated 2002)

Assay: Case report: subject, under treatment for uneasiness, short temper and prolonged anger
Assay type: in vivo, human
Details: while taking welbutrin, before the butyrate
Description: A subject was under treatment for uneasiness, short temper and prolonged anger, and was taking welbutrin.

## CC(NC(C)(C)C)C(=O)c1cccc(Cl)c1 (stereo not shown) [welbutrin, 1-(3-chlorophenyl)-2-[(1,1-dimethylethyl)amino]-1-propanone]
  side effects suffered under prior treatment: stomach discomfort, memory deficiency and reduced clarity of thought
